Assay results taken from ChEMBL document CHEMBL3991601, “The target landscape of clinical kinase drugs” (Science, 2017).
Activity calls are given as the source filed them. Rule as the data show it, for most assays here: actives have a measured Kd and inactives only a lower limit.

Legend:
[1] = target: T1, Inhibitor of nuclear factor kappa-B kinase subunit epsilon (Homo sapiens, UniProt Q14164)
T1 sequence (Q14164 whole entry): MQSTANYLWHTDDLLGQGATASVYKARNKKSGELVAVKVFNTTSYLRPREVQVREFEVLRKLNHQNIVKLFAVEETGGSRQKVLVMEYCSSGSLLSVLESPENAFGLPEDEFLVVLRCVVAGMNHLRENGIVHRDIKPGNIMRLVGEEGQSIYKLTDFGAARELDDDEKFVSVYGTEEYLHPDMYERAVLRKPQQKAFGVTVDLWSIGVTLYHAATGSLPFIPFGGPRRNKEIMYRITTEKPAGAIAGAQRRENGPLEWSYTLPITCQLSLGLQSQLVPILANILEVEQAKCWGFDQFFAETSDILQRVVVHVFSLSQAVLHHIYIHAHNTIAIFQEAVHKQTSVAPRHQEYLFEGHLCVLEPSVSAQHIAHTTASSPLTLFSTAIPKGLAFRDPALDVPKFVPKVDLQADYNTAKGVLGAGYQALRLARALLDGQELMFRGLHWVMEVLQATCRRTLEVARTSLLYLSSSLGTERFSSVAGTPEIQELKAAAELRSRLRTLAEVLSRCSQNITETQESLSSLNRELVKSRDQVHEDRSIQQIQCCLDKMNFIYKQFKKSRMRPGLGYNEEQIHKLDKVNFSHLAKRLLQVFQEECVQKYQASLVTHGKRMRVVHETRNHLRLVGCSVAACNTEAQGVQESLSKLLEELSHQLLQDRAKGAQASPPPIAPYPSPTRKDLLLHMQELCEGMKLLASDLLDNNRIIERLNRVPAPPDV

[2] = target: Dual specificity mitogen-activated protein kinase kinase 2 (Homo sapiens, UniProt P36507)
Chain of Dual specificity mitogen-activated protein kinase kinase 2 (P36507 whole entry): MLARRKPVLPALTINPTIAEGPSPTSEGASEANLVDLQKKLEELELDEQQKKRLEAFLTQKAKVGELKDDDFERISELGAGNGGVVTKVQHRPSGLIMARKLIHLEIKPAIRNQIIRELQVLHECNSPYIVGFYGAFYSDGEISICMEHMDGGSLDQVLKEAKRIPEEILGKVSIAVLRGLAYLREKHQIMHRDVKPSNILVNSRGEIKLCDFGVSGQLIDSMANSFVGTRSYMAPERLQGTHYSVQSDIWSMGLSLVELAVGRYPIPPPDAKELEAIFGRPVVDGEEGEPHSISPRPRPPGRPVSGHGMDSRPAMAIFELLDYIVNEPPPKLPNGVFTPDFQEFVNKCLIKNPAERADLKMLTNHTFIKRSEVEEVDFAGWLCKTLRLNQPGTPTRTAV

[3] = target: Serine/threonine-protein kinase MRCK alpha (Homo sapiens, UniProt Q5VT25)
Chain of Serine/threonine-protein kinase MRCK alpha (Q5VT25 whole entry): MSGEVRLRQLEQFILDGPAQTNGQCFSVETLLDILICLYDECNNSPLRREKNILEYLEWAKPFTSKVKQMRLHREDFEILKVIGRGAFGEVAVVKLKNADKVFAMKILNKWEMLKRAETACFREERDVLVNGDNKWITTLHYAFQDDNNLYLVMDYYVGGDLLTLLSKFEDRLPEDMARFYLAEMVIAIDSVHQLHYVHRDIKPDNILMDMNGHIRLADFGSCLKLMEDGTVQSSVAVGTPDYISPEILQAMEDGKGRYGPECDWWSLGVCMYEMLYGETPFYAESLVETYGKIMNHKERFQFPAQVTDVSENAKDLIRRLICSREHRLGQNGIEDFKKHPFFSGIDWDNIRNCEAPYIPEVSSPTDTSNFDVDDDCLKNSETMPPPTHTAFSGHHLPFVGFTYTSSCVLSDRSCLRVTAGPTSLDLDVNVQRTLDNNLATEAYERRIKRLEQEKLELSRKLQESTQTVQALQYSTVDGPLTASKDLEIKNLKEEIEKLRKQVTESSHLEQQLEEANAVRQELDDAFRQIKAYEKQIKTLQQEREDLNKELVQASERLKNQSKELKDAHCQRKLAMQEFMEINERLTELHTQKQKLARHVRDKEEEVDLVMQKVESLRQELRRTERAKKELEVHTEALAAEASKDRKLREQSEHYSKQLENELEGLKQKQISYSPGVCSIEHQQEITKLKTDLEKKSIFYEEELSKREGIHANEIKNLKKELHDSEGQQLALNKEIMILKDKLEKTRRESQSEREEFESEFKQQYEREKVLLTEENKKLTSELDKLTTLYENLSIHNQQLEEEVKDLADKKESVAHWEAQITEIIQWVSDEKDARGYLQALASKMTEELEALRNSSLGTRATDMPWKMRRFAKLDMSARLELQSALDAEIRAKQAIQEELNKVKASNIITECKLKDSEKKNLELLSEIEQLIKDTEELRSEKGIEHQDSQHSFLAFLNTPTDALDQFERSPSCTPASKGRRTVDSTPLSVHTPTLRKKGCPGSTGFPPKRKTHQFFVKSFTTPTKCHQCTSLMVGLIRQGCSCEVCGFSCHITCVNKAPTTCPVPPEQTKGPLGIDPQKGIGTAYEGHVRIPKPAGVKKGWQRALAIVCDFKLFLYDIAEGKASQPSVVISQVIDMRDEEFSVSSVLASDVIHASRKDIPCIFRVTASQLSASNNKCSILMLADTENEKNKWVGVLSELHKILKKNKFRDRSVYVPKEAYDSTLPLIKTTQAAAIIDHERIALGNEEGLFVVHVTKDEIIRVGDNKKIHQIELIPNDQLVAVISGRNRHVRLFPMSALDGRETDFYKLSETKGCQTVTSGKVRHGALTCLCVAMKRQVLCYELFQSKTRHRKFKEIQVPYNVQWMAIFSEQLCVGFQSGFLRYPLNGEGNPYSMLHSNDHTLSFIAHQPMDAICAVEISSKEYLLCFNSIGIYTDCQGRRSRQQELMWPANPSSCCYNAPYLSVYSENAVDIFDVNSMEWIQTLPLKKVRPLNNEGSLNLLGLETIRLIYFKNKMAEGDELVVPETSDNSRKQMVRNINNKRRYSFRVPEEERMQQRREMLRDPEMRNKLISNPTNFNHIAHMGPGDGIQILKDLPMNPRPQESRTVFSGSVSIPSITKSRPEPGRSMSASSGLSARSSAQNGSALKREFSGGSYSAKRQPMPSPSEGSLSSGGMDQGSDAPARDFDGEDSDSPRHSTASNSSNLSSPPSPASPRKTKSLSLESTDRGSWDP

[4] = target: T2, Serine/threonine-protein kinase TAO1 (Homo sapiens, UniProt Q7L7X3)
T2 sequence (Q7L7X3 whole entry): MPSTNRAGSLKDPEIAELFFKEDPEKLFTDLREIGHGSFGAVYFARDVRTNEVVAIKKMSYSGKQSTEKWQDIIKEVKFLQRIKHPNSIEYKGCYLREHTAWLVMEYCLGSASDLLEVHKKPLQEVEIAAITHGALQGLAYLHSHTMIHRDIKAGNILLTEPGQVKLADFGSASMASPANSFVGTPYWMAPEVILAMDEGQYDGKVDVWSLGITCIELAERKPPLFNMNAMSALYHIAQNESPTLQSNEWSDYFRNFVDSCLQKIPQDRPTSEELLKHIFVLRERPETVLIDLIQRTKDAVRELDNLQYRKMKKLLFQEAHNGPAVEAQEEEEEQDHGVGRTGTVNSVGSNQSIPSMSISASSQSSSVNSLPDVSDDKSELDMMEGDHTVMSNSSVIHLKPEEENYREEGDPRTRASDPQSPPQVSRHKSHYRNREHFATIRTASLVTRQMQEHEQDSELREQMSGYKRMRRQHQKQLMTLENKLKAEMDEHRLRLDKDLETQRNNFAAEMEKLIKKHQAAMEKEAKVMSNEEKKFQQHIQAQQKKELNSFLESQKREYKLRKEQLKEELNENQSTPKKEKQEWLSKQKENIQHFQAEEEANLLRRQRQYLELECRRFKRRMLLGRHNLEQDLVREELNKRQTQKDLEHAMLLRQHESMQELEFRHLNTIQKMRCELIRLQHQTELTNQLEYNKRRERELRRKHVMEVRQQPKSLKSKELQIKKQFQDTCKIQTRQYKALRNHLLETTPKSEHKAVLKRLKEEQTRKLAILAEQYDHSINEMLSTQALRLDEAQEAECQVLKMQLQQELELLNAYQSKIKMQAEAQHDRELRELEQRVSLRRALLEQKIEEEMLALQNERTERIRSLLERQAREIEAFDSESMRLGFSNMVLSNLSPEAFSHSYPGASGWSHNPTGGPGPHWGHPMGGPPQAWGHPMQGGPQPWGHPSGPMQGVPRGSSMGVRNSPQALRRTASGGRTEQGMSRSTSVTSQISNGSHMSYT

[5] = target: T3, Dynamin-like GTPase OPA1, mitochondrial (Homo sapiens, UniProt O60313)
T3 sequence (O60313 whole entry): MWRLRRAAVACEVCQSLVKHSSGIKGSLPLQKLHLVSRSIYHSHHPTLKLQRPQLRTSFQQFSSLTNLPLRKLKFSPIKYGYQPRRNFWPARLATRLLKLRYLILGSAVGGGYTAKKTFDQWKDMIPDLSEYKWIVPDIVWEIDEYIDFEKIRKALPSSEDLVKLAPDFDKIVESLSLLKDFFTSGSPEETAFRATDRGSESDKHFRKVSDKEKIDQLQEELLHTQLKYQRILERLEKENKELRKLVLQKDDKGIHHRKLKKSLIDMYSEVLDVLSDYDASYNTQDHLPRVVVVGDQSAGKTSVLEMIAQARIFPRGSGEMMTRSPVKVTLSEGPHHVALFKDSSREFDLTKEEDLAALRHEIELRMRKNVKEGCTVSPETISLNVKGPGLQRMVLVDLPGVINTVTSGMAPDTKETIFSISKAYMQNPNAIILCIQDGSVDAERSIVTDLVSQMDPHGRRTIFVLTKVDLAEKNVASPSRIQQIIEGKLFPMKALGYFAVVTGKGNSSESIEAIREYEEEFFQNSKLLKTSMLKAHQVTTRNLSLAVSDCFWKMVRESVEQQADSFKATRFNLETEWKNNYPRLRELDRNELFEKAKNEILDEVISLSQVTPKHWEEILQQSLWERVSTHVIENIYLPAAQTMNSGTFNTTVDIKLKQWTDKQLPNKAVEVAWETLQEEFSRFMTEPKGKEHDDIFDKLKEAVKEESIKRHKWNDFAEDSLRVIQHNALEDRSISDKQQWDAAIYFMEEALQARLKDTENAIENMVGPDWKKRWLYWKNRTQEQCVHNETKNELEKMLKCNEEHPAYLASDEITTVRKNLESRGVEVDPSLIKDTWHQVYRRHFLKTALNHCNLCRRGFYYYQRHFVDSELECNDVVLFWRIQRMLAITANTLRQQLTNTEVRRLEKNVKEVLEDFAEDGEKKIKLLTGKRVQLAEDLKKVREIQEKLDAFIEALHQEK

[6] = target: Bone morphogenetic protein receptor type-1B (Homo sapiens, UniProt O00238)
Chain of Bone morphogenetic protein receptor type-1B (O00238 whole entry): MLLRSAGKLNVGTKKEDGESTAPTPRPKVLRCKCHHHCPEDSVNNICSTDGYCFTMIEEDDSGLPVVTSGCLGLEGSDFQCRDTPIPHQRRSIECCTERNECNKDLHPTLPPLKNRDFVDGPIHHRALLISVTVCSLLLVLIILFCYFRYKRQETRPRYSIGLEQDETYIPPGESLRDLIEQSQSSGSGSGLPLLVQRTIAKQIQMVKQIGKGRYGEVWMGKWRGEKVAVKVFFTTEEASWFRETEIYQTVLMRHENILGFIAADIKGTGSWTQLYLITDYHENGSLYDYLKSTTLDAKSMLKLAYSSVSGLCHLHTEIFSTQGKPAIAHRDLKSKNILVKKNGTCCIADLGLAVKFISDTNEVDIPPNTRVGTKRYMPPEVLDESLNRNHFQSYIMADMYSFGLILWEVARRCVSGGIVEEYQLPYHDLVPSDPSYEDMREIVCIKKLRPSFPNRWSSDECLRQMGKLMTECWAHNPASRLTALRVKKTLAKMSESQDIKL
Also: in the data inactive means no Kd found up to 30 µM.

Compound	Kd [1]	Kd [2]	Kd [3]	Kd [4]	Kd [5]	Kd [6]
FC(F)(F)c1ccc(/C=C/c2nc(COc3ccc(CCCCn4ccnn4)cc3)co2)cc1 [MUBRITINIB]	> 30 µM (inactive)	> 30 µM (inactive)	> 30 µM (inactive)	> 30 µM (inactive)	> 30 µM (inactive)	> 30 µM (inactive)
COc1ncc(-c2ccc3nccc(-c4ccnnc4)c3c2)cc1NS(=O)(=O)c1ccc(F)cc1F [OMIPALISIB]	> 30 µM (inactive)	> 30 µM (inactive)	> 30 µM (inactive)	> 30 µM (inactive)	> 30 µM (inactive)	> 30 µM (inactive)
CCCCCCCCCCCCCCCCCCOP(=O)([O-])OC1CC[N+](C)(C)CC1 [PERIFOSINE]	> 30 µM (inactive)	> 30 µM (inactive)	> 30 µM (inactive)	> 30 µM (inactive)	> 30 µM (inactive)	> 30 µM (inactive)
Cc1nc(Nc2n[nH]c3c2CN(C(=O)N[C@H](CN(C)C)c2ccccc2)C3(C)C)c2sccc2n1 [PF-03758309]	0.658 µM (active)	> 30 µM (inactive)	> 30 µM (inactive)	> 30 µM (inactive)	> 30 µM (inactive)	> 30 µM (inactive)
Cc1cnc(NC(=O)Nc2cc(Br)c(C)cc2OC[C@@H]2CNCCO2)cn1 [RABUSERTIB]	> 30 µM (inactive)	> 30 µM (inactive)	> 30 µM (inactive)	> 30 µM (inactive)	> 30 µM (inactive)	> 30 µM (inactive)
CNC(=O)c1cc(Oc2ccc(NC(=O)Nc3cc(C(C)(C)C)nn3-c3ccc4ncccc4c3)c(F)c2)ccn1 [REBASTINIB]	> 30 µM (inactive)	> 30 µM (inactive)	> 30 µM (inactive)	> 30 µM (inactive)	> 30 µM (inactive)	> 30 µM (inactive)
CO[C@H]1C[C@@H]2CC[C@@H](C)[C@@](O)(O2)C(=O)C(=O)N2CCCC[C@H]2C(=O)O[C@H]([C@H](C)C[C@@H]2CC[C@@H](OP(C)(C)=O)[C@H](OC)C2)CC(=O)[C@H](C)/C=C(\C)[C@@H](O)[C@@H](OC)C(=O)[C@H](C)C[C@H](C)/C=C/C=C/C=C/1C [RIDAFOROLIMUS]	> 30 µM (inactive)	> 30 µM (inactive)	> 30 µM (inactive)	> 30 µM (inactive)	> 30 µM (inactive)	> 30 µM (inactive)
N#CC1(c2ccc(NC(=O)c3cccnc3NCc3ccncc3)cc2)CCCC1 [RIVOCERANIB]	> 30 µM (inactive)	> 30 µM (inactive)	> 30 µM (inactive)	> 30 µM (inactive)	> 30 µM (inactive)	> 30 µM (inactive)
O=c1[nH]ccc2cc(OC3CCNCC3)ccc12 [SAR-407899 FREE BASE]	> 30 µM (inactive)	> 30 µM (inactive)	0.01 µM (active)	> 30 µM (inactive)	> 30 µM (inactive)	> 30 µM (inactive)
CN1CCN(CCOc2cc(OC3CCOCC3)c3c(Nc4c(Cl)ccc5c4OCO5)ncnc3c2)CC1 [SARACATINIB]	> 30 µM (inactive)	> 30 µM (inactive)	> 30 µM (inactive)	> 30 µM (inactive)	> 30 µM (inactive)	0.029 µM
Cn1cc(-c2cnn3c(N)c(Br)c([C@@H]4CCCNC4)nc23)cn1 [SCH-900776]	> 30 µM (inactive)	2.36 µM (active)	> 30 µM (inactive)	> 30 µM (inactive)	> 30 µM (inactive)	> 30 µM (inactive)

More lines, now with the values ahead:

Kd [1]	Kd [2]	Kd [3]	Kd [4]	Kd [5]	Kd [6]	Compound
> 30 µM (inactive)	> 30 µM (inactive)	> 30 µM (inactive)	> 30 µM (inactive)	> 30 µM (inactive)	> 30 µM (inactive)	CO[C@H]1C[C@@H]2CC[C@@H](C)[C@@](O)(O2)C(=O)C(=O)N2CCCC[C@H]2C(=O)O[C@H]([C@H](C)C[C@@H]2CC[C@@H](O)[C@H](OC)C2)CC(=O)[C@H](C)/C=C(\C)[C@@H](O)[C@@H](OC)C(=O)[C@H](C)C[C@H](C)/C=C/C=C/C=C/1C [SIROLIMUS]
> 30 µM (inactive)	3.95 µM (active)	> 30 µM (inactive)	> 30 µM (inactive)	> 30 µM (inactive)	> 30 µM (inactive)	CCS(=O)(=O)c1cccc(-c2cc(C(=O)NC3CCN(C)CC3)c(C)c3[nH]c4ncc(C)cc4c23)c1 [TAK-901]
> 30 µM (inactive)	> 30 µM (inactive)	> 30 µM (inactive)	> 30 µM (inactive)	> 30 µM (inactive)	> 30 µM (inactive)	CO[C@H]1C[C@@H]2CC[C@@H](C)[C@@](O)(O2)C(=O)C(=O)N2CCCC[C@H]2C(=O)O[C@H]([C@H](C)C[C@@H]2CC[C@@H](OC(=O)C(C)(CO)CO)[C@H](OC)C2)CC(=O)[C@H](C)/C=C(\C)[C@@H](O)[C@@H](OC)C(=O)[C@H](C)C[C@H](C)/C=C/C=C/C=C/1C [TEMSIROLIMUS]
> 30 µM (inactive)	> 30 µM (inactive)	> 30 µM (inactive)	> 30 µM (inactive)	> 30 µM (inactive)	> 30 µM (inactive)	COc1cc2c(Nc3ccc(Cl)c(Cl)c3F)ncnc2cc1OC[C@@H]1C[C@@H]2CN(C)C[C@@H]2C1 [TESEVATINIB]
> 30 µM (inactive)	> 30 µM (inactive)	> 30 µM (inactive)	> 30 µM (inactive)	> 30 µM (inactive)	> 30 µM (inactive)	O=C(Cc1ccc(-c2ccc(OCCN3CCOCC3)cc2)cn1)NCc1ccccc1 [TIRBANIBULIN]
> 30 µM (inactive)	> 30 µM (inactive)	> 30 µM (inactive)	> 30 µM (inactive)	0.017 µM	> 30 µM (inactive)	O=C1NC(=O)[C@@H](c2cn3c4c(cccc24)CCC3)[C@@H]1c1c[nH]c2ccccc12 [TIVANTINIB]
> 30 µM (inactive)	> 30 µM (inactive)	> 30 µM (inactive)	> 30 µM (inactive)	> 30 µM (inactive)	> 30 µM (inactive)	C[C@@H](NC(=O)c1ncnc(N)c1Cl)c1ncc(C(=O)Nc2cc(C(F)(F)F)c(Cl)cn2)s1 [TOVORAFENIB]
